Laboratory results: PubChem BioAssay (NCI)
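Each compound was tested at five concentrations against cells in 96-well plates for 48 hours. The concentration for full growth arrest is given as TGI.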

What was measured:
Assay in all cases: NCI anticancer screen, dose series, 48 h
SK-OV-3 ovarian = system: SK-OV-3 ovarian
UACC-62 melanoma = system: UACC-62 melanoma
UO-31 renal = system: UO-31 renal
SF-539 CNS = system: SF-539 CNS
NCI-H23 lung = system: NCI-H23 lung
HCC-2998 colon = system: HCC-2998 colon
SNB-19 CNS = system: SNB-19 CNS
A549 NSCLC = system: A549 NSCLC
DU-145 prostate = system: DU-145 prostate
MDA-MB-231 breast = system: MDA-MB-231 breast
M14 melanoma = system: M14 melanoma
SN12C renal = system: SN12C renal
NCI-H460 lung = system: NCI-H460 lung
SW-620 colon = system: SW-620 colon
MCF7 breast = system: MCF7 breast
CCRF-CEM leukemia = system: CCRF-CEM leukemia
TK-10 renal = system: TK-10 renal
SNB-75 CNS = system: SNB-75 CNS
CAKI-1 renal = system: CAKI-1 renal

SMILES	TGI (SK-OV-3 ovarian)	TGI (UACC-62 melanoma)	TGI (UO-31 renal)	TGI (SF-539 CNS)	TGI (NCI-H23 lung)	TGI (HCC-2998 colon)	TGI (SNB-19 CNS)	TGI (A549 NSCLC)	TGI (DU-145 prostate)	TGI (MDA-MB-231 breast)	TGI (M14 melanoma)	TGI (SN12C renal)	TGI (NCI-H460 lung)	TGI (SW-620 colon)	TGI (MCF7 breast)	TGI (CCRF-CEM leukemia)	TGI (TK-10 renal)	TGI (SNB-75 CNS)	TGI (CAKI-1 renal)
CC(C)C1CC(CO)(CNc2nc(N)nc(Cl)c2C=O)C1 (configuration not stated)	61.7 µM	4.11 µM	13 µM	41.5 µM	4.64 µM	4.32 µM	17.1 µM	31.4 µM	29.1 µM	5.14 µM	3.24 µM	28.5 µM	31.9 µM	21.8 µM	> 100 µM	6.36 µM	> 100 µM	15.4 µM	
C/C(=C\COP(=O)(O)CP(=O)(O)O)CC/C=C(\C)CNc1ccccc1	> 100 µM	> 100 µM	> 100 µM	> 100 µM	> 100 µM		> 100 µM	> 100 µM	> 100 µM	> 100 µM	> 100 µM	> 100 µM	> 100 µM	> 100 µM	> 100 µM	> 100 µM	> 100 µM	> 100 µM	> 100 µM
Cc1c(S(=O)(=O)/N=C(\NO)Nc2ccc(Cl)cc2)sc2ccc(Cl)cc12	31.2 µM	29.8 µM	52.5 µM	42.1 µM	33.6 µM		35.2 µM	33.8 µM	53.7 µM	42.7 µM	31.2 µM	35.5 µM	76.8 µM	63.1 µM		> 100 µM	35.5 µM	41.9 µM	34.3 µM
CCc1c(N=[N+]=[N-])c2ccccc2oc1=O	> 100 µM	> 100 µM	> 100 µM	> 100 µM	> 100 µM	> 100 µM		> 100 µM	> 100 µM	> 100 µM	> 100 µM	> 100 µM	> 100 µM	> 100 µM	> 100 µM	> 100 µM	> 100 µM	> 100 µM	
O=[N+]([O-])c1cccc(-c2ccc([C@H]3CC(c4ccc(Cl)cc4)=NN3)o2)c1	54.5 µM	49.1 µM	40.9 µM			38.1 µM	89.7 µM	> 100 µM	50.1 µM		> 100 µM	53.4 µM		> 100 µM	> 100 µM	90.8 µM	42.8 µM	48.4 µM	60.5 µM
COC(=O)C#CC1(O)C=CC(=O)C=C1	> 100 µM	2.64 µM	10.6 µM	> 35.1 µM	6.28 µM	8.15 µM	17.9 µM	> 48.1 µM	16.7 µM		12.1 µM		13.9 µM			0.758 µM	5.22 µM	18.1 µM	
COc1ccc2nc3cc(Cl)ccc3c(NCCCN(C)CCCNc3ccc4ncn5c6ccccc6c(=O)c3c45)c2c1	6.04 µM	7.93 µM	7.28 µM	5.26 µM	6.13 µM	0.423 µM	5.86 µM	1.55 µM	7.19 µM	6.02 µM	5.8 µM	5.28 µM	0.504 µM	> 25 µM		> 25 µM	1.76 µM	7.55 µM	4.36 µM
